The results in this text go back to ChEMBL document CHEMBL5550215, “Discovery of Novel Imidazo[1,2-a]pyridine-Based HDAC6 Inhibitors as an Anticarcinogen with a Cardioprotective Effect” (J Med Chem, 2024).

What is called pIC50 is −log10 of the IC50, conventionally taken in molar units. What is called clearance is a measure of how efficiently the substance is removed, as volume per time.

The subject of data set [1] is MGC-803. Nature of the data set: Induction of apoptosis in human MGC-803 cells assessed as early apoptotic cells at 1 uM measured after 48 hrs by Annexin V-EGFP and PI staining based flow cytometry analysis (reference value: 0.66%). The format is functional. A general note: A flow cytometer gives signals particle by particle.
The nature of data set [2]: Observed apparent volume of distribution in male Sprague-Dawley rat at 7 mg/kg,iv measured upto 8 hrs by UPLC-MS/MS analysis. The data set is classed as ADME, organism-based. Particulars: in vivo, read-out: Vz.
The subject of a further data set is NCI-H460. Kind of data set: Antiproliferative activity against human NCI-H460 cells assessed as inhibition of cell growth by MTT assay. (In general: Tetrazolium dyes change colour on reduction, which living cells bring about.)
In a further data set the test system is SMMC-7721. Kind of data set: Antiproliferative activity against human SMMC-7721 cells assessed as inhibition of cell growth by MTT assay.
Data set [3] concerns MGC-803. Nature of the data set: Induction of apoptosis in human MGC-803 cells measured after 48 hrs by Annexin V-EGFP and PI staining based flow cytometry analysis. The format is functional, cell-based. As to conditions: dose <= 2.0 µM.
In data set [4] the test system is MGC-803. Nature of the data set: Induction of apoptosis in human MGC-803 cells assessed as early apoptotic cells at 0.5 uM measured after 48 hrs by Annexin V-EGFP and PI staining based flow cytometry analysis (reference value: 0.66%). The format is functional.
The test system of data set [5] is Mus musculus. Kind of data set: Cardioprotective activity against myocardial ischemia/reperfusion induced C57BL/6J mouse model assessed as reduction in myocardial infarction area at 10 mg/kg (reference value: 72.19%). On the set-up: scale not given: the % may be the effect or the level left. The data set is classed as functional.
Data set [6] relates to H9c2. Nature of the data set: Cardioprotective activity in H2O2 induced myocardial injury in rat H9c2 cells assessed as downregulation of IL-18 mRNA level at upto 8 uM by q-PCR analysis. The data set is classed as functional, cell-based.
Data set [7] addresses T1, Protein deacetylase HDAC6 (Mus musculus) (UniProt Q9Z2V5).
T1 sequence (whole entry): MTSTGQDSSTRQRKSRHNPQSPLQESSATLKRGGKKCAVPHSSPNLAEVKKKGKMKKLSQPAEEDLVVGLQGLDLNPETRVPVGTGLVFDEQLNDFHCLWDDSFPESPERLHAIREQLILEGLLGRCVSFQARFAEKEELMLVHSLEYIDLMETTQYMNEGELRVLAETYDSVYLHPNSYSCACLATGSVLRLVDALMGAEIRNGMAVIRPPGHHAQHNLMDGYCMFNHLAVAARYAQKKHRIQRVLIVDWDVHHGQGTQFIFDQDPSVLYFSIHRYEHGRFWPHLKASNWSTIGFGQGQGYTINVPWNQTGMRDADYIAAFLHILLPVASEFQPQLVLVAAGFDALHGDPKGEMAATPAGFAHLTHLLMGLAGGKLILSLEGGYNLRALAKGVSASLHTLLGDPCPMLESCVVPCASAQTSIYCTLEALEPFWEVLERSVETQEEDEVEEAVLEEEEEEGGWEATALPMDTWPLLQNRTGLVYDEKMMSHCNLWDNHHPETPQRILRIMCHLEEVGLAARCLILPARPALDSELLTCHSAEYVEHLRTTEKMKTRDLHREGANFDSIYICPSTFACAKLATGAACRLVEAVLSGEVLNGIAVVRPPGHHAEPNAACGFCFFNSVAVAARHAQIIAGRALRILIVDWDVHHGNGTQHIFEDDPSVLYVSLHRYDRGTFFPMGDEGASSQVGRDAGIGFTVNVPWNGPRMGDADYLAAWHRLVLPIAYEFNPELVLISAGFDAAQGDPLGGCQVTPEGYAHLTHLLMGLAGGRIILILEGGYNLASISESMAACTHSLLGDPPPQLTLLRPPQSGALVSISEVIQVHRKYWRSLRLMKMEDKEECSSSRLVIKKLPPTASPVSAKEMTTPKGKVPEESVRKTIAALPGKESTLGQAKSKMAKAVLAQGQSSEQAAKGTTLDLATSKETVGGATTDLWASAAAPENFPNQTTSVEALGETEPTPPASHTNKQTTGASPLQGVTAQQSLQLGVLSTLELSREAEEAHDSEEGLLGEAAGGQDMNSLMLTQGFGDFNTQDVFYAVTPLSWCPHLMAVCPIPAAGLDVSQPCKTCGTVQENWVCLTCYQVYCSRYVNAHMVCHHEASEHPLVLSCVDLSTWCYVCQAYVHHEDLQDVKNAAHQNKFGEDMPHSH
Kind of data set: In vivo inhibition of HDAC6 in C57BL/6 mouse xenografted with MGC-803 cells assessed as effect on acetylated tubulin level at 25 to 50 mg/kg, ip by Western blot analysis. The data set is classed as functional, organism-based. Particulars: dose 25-50 mg/kg.

Data set [8] relates to MGC-803. Kind of data set: Induction of apoptosis in human MGC-803 cells assessed as viable cells at 1 uM measured after 48 hrs by Annexin V-EGFP and PI staining based flow cytometry analysis (reference value: 92.3%). The format is functional. Particulars: read-out: Activity.
In data set [9] the target is T2, Histone deacetylase 1 (Homo sapiens, UniProt Q13547). Kind of data set: Inhibition of HDAC1 (unknown origin).
In data set [10] the test system is Mus musculus. Kind of data set: Cardioprotective activity against myocardial ischemia/reperfusion induced C57BL/6J mouse model assessed as reduction in IL-1 beta expression at 2.5 to 10 mg/kg. The format is functional, organism-based. As to conditions: dose 2.5-10 mg/kg.
Data set [11] deals with MGC-803. Nature of the data set: Induction of apoptosis in human MGC-803 cells assessed as late apoptotic cells at 1 uM measured after 48 hrs by Annexin V-EGFP and PI staining based flow cytometry analysis (reference value: 3.16%). The format is functional.
In data set [12] the test system is H9c2. Kind of data set: Cardioprotective activity against H2O2 induced myocardial damage in rat H9c2 cells harbouring Ad.HDAC6 assessed as decrease in LDH leakage rate at 8 uM by absorbance based analysis. The format is functional, cell-based.
Data set [13] deals with H9c2. Nature of the data set: Cardioprotective activity in H2O2 induced myocardial injury in rat H9c2 cells assessed as decrease in cell contraction at 2 to 8 uM. As to conditions: dose 2-8 µM. The format is functional, cell-based.
Data set [14] concerns the target T2, Histone deacetylase 1. Nature of the data set: Induction of thermal stabilization of HDAC1 in human MGC-803 cells at 48 degree C st 20 uM incubated for 4 hrs by CETSA. The data set is classed as cell-based.
The subject of data set [15] is MGC-803. Kind of data set: Antitumor activity against human MGC-803 cells xenografted in […] mouse model assessed as decrease in HDAC6 expression administered as IP dose by Western blot analysis. Particulars: dose 25-50 mg/kg. The data set is classed as functional, cell-based.
A short description of data set [16]: Observed clearance in male Sprague-Dawley rat at 7 mg/kg,iv measured upto 8 hrs by UPLC-MS/MS analysis. The data set is classed as ADME, organism-based. Particulars: in vivo.
Data set [17] deals with MGC-803. Kind of data set: Induction of apoptosis in human MGC-803 cells assessed as viable cells at 0.5 uM measured after 48 hrs by Annexin V-EGFP and PI staining based flow cytometry analysis (reference value: 92.3%). The format is functional. As to conditions: read-out: Activity.
Another data set has as its system SGC-7901. Kind of data set: Antiproliferative activity against human SGC-7901 cells assessed as inhibition of cell growth by MTT assay.
Data set [18] concerns H9c2. Nature of the data set: Cardioprotective activity in H2O2 induced myocardial injury in rat H9c2 cells assessed as downregulation of IL-18 expression. The format is functional, cell-based. Particulars: dose <= 8.0 µM.
Data set [19] has as its system Mus musculus. Nature of the data set: Cardioprotective activity against myocardial ischemia/reperfusion induced C57BL/6J mouse model assessed as effect on infarct size of mouse heart at 2.5 to 10 mg/kg by TTC staining based analysis. The data set is classed as functional, organism-based. Particulars: dose 2.5-10 mg/kg.
Data set [20] in a line: Toxicity in C57BL/6 mouse assessed as effect on body weight at 25 to 50 mg/kg, ip measured after 21 days. Particulars: in vivo, 504 h, dose 25-50 mg/kg, time 21 day. The format is organism-based.
A short description of data set [21]: Observed apparent volume of distribution in male Sprague-Dawley rat at 7 mg/kg,po measured upto 8 hrs by UPLC-MS/MS analysis. The data set is classed as ADME, organism-based. As to conditions: in vivo.

pIC50: −log10 of the molar value. The source made the active and inactive calls. The rule behind the calls is not given here.

T2 sequence (Q13547 whole entry, the tested form may be a part): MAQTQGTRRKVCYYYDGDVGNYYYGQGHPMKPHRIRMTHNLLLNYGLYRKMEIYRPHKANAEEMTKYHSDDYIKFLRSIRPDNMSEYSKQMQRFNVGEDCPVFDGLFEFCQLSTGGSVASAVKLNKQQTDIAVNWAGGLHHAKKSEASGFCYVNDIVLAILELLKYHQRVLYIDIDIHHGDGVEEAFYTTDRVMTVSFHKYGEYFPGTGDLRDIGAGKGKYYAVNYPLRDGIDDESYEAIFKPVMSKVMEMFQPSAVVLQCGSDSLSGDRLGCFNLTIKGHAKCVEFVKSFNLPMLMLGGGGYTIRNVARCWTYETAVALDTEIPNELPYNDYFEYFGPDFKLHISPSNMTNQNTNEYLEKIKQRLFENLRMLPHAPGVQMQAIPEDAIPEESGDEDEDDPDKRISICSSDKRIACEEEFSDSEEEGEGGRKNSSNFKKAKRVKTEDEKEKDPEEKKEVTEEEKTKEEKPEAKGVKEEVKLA

With `O=C(NO)c1ccc(CNC(=O)c2cc(-c3ccc(F)cc3)cn3ccnc23)cc1`, the Activity in the data set on MGC-803 [1] was 0.48%; in the data set on MGC-803 [3], “Dose-Dependent Effect”; in the data set with MGC-803 [4], 0.52%; with Mus musculus [5], 37.64%; in the data set with MGC-803 [11], 17.6%; with MGC-803 [15], “Dose-Dependent Effect”. The figures for the Activity entry (in the data set with H9c2 [18]; in [20]) were “Dose-Dependent Effect” and “Non-Toxic”, respectively. Besides, in [2], the Vd came to 25.5 L/kg. Also, the pIC50 was under 5.00 with NCI-H460, 5.56 in the data set with SMMC-7721, 8.51 on Histone deacetylase 1 [9] and 5.08 in the data set with SGC-7901. Moreover, the outcome in the data set on H9c2 [6], in the data set on Mus musculus [10], in the data set on H9c2 [12] and in the data set on H9c2 [13] was Active. In addition, in data set [7], the inhibition result was “Active”. For the same compound, in the data set on MGC-803 [8], the viability at 1 µM was 77.2%. Also, the outcome on Histone deacetylase 1 [14] and in the data set on Mus musculus [19] was inactive. This compound also registered a clearance in [16] of 134 mL/min/kg. The viability at 0.5 µM in the data set with MGC-803 [17] was found to be 70.5%. Further, the Vz in [21] was found to be 492216.71 mL/kg.
